Data published in patent US20250223301A1, “KINASE INHIBITORS, PREPARATION METHODS AND USES THEREOF” (InventisBio Co., Ltd., priority 2022, published 2025).

What was measured:
[1] = target: DGKz (Homo sapiens (Human), UniProt Q13574); assay: DGK ADP-Glo kinase assay (DGKz); type: biochemical; conditions: 5 nM DGKz, 15 uM ATP
Protocol: Luminescence was recorded using an Tecan SPARK microplate reader.

[2] = target: DGKa (Homo sapiens (Human), UniProt P23743); assay: biochemical;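 also: biochemical DGK kinase assay, ADP-Glo luminescence from ADP made by phosphorylating 1,2-dioleoyl-sn-glycerol, 20 min compound preincubation then 40 min reaction at 25 °C, 1% DMSO control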
Chain of DGKa (P23743 whole entry): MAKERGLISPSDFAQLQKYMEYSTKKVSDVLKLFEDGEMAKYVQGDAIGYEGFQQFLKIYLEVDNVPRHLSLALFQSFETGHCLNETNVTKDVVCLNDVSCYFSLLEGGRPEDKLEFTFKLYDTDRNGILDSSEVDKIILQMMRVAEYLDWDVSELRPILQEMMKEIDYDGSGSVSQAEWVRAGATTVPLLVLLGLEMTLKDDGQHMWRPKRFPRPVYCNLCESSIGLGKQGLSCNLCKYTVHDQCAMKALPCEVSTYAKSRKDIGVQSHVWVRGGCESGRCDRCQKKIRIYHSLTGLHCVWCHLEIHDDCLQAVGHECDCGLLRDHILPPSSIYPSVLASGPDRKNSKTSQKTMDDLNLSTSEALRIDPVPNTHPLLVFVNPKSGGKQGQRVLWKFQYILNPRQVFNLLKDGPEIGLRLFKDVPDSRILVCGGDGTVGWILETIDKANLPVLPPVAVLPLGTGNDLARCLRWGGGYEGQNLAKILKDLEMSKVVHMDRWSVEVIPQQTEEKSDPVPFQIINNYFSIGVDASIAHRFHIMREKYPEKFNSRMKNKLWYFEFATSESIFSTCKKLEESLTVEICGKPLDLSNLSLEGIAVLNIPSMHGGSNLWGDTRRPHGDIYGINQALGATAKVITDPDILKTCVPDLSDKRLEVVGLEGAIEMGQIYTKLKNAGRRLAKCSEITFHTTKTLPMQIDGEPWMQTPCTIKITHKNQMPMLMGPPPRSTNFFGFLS
Protocol: The DGKa and DGKz kinase assays were performed using Promega ADP-Glo kit (Promega, Cat #V9102). One microliter test compound was added to a 384-well plate. Reactions were performed in a 5 uL volume by adding 2 uL mixture of DGK enzyme and ATP in assay buffer (50 mM MOPS pH 7.5, 100 mM NaCl, 10 mM MgCl2, 1 mM CaCl2, 0.0025% BSA, and 1 mM DTT). […] The enzyme solution was incubated with test compound at 25 ? for 20 min. […] The reaction was initiated by the addition of 2 uL of substrate solution (7 uM 1.2-dioleoyl-sn-glycerol, 5 mM octyl-b-D-glucopyranoside) in the 5 uL assay volume. The resulting mixture was incubated at 25° C. for 40 minutes. Next, 5 uL of ADP-Glo-reagent was added to the plate and incubated for 40 minutes. Then 10 uL of kinase detection reagent was added and incubated for 30 minutes. Luminescence was recorded using an Tecan SPARK microplate reader. 1% DMSO vehicle was used as control and no enzyme well was used as blank well.

Chain of DGKz (Q13574 whole entry): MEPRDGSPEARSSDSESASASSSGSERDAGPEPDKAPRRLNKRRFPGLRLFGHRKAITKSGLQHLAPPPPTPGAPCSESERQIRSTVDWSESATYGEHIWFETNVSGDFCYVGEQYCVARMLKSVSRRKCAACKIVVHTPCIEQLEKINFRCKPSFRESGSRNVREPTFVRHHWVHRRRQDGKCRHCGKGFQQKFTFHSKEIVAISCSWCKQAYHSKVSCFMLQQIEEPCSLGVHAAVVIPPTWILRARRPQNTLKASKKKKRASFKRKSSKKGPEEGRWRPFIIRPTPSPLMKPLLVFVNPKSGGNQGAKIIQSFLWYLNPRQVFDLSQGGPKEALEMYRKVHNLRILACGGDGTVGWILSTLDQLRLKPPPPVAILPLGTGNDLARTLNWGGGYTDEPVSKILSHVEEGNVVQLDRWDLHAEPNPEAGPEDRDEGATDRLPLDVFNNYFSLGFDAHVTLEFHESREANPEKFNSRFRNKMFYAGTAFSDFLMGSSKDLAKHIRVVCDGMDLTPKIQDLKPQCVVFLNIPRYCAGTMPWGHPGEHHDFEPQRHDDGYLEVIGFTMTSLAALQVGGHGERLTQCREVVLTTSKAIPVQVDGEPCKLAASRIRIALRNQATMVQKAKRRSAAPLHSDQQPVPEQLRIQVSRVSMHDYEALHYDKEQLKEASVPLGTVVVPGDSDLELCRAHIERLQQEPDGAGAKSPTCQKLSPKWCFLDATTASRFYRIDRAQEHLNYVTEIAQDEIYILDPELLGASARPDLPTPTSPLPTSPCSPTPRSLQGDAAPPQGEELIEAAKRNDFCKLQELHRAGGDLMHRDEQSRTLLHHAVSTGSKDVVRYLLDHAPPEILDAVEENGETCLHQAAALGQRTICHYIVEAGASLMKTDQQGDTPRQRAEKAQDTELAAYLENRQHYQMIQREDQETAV

Row | Structure (SMILES) | IC50 [1] [nM] | IC50 [2] [nM]
1 | CC[C@H]1CN([C@@H](C)c2ccc(SC(F)(F)F)cc2)[C@H](CC)CN1c1nc2nncn2c2ccc(C#N)nc12 (stereo in doubt) [Compound 51] | 50 | 58
2 | CC[C@H]1CN([C@H](C)c2ccc(SC(F)(F)F)cc2)[C@H](CC)CN1c1nc2nncn2c2ccc(C#N)nc12 (stereo in doubt) [Compound 52] | 499 | 5
3 | CC[C@H]1CN([C@H](CC)c2cccc(S(F)(F)(F)(F)F)c2)[C@H](CC)CN1c1nc(=O)n(C)c2ccc(C#N)nc12 (stereo in doubt) [Compound 56] | 131 | 415
4 | CC[C@@H]1CN(c2nc(=O)n(C)c3ccc(C#N)nc23)[C@@H](C)CN1[C@@H](CC)c1ccc(S(F)(F)(F)(F)F)cc1 (stereo in doubt) [Compound 60] | 28 | 83
5 | CC[C@@H]1CN(c2nc(=O)n(C)c3ccc(C#N)nc23)[C@@H](C)CN1[C@H](CC)c1ccc(S(F)(F)(F)(F)F)cc1 (stereo in doubt) [Compound 61] | 180 | 128
6 | CC[C@H]1CN([C@@H](C)c2ccc(S(F)(F)(F)(F)F)cc2)[C@H](CC)CN1c1nc(=O)n(C)c2ccc(C#N)nc12 (stereo in doubt) [Compound 62] | 132 | 35
7 | CC[C@H]1CN([C@H](C)c2ccc(S(F)(F)(F)(F)F)cc2)[C@H](CC)CN1c1nc(=O)n(C)c2ccc(C#N)nc12 (stereo in doubt) [Compound 63] | 639 | 16
8 | CC[C@@H]1CN(c2nc3nncn3c3ccc(C#N)nc23)[C@@H](C)CN1[C@@H](CC)c1ccc(SC(F)(F)F)cc1 (stereo in doubt) [Compound 66] | 53 | 4
9 | CC[C@H]1CN([C@@H](CC)c2ccc(SC(F)(F)F)cc2)[C@H](CC)CN1c1nc2nncn2c2ccc(C#N)nc12 (stereo in doubt) [Compound 68] | 103 | 5
10 | CC[C@H]1CN([C@H](CC)c2ccc(SC(F)(F)F)cc2)[C@H](CC)CN1c1nc2nncn2c2ccc(C#N)nc12 (stereo in doubt) [Compound 69] | 346 | 10
11 | CC[C@H]1CN([C@H](c2ccc(SC(F)(F)F)cc2)c2nc(C3CC3)no2)[C@H](CC)CN1c1nc(=O)n(C)c2ccc(C#N)nc12 (stereo in doubt) [Compound 70] | 53 | 3
12 | CC[C@@H]1CN(c2nc3nncn3c3ccc(C#N)nc23)[C@@H](C)CN1[C@H](CC)c1ccc(SC(F)(F)F)cc1 (stereo in doubt) [Compound 71] | 236 | 21
13 | CC[C@H]1CN([C@H](CC)c2ccc(S(F)(F)(F)(F)F)cc2)[C@H](CC)CN1c1nc(=O)n2c3c(cc(C#N)nc13)OCC2 (stereo in doubt) [Compound 79] | 333 | 111
14 | CC[C@@H]1CN(c2nc3nncn3c3ccc(C#N)nc23)[C@@H](C)CN1[C@@H](CC)c1ccc(S(F)(F)(F)(F)F)cc1 (stereo in doubt) [Compound 80] | 27 | 12
15 | CC[C@@H]1CN(c2nc3nncn3c3ccc(C#N)nc23)[C@@H](C)CN1[C@@H](CC)c1ccc(C(F)(F)F)cc1 (stereo in doubt) [Compound 81] | 16 | 6
16 | CC[C@@H]1CN(c2nc3nncn3c3ccc(C#N)nc23)[C@@H](C)CN1[C@H](CC)c1ccc(C(F)(F)F)cc1 (stereo in doubt) [Compound 82] | 454 | 2
17 | CC[C@H]1CN([C@@H](CC)c2ccc(S(F)(F)(F)(F)F)cc2)[C@H](CC)CN1c1nc(=O)n2c3c(cc(C#N)nc13)OCC2 (stereo in doubt) [Compound 83] | 124 | 23
18 | CC[C@H]1CN([C@@H](C)c2ccc(S(F)(F)(F)(F)F)cc2)[C@H](CC)CN1c1nc2nncn2c2ccc(C#N)nc12 (stereo in doubt) [Compound 88] | 38 | 18
